The values that follow come from patent US5798362A, “Quinazolinyl-amino derivatives having α-antagonist activity” (Recordati S.A. Chemical and Pharmaceutical Company, priority 1994, dated 1998).

Data set [1] has as its target α1-receptors ([3H]prazosin). Briefly: [3H]Prazosin binding (α1-receptors), rat cerebral cortices. To be noted: rat cerebral cortex, 0.35 nM [3H]prazosin, 25° C., 30 min; read-out: [3H] prazosine IC50. How it is done: Rat cerebral cortices were homogenized in 50 volumes of original wet weight of ice-cold 50 mM Tris-HCl buffer pH 7.4. The homogenates were centrifuged at 48,000 × g for 10 minutes, and the pellets were resuspended in the same volume of ice-cold buffer, centrifuged and resuspended two more times. […] The incubations were terminated by rapid filtration through Whatman GF/B, filters using a Brandel cell harvester and the filters were washed with 3×3 ml of ice-cold buffer. The radioactivity retained on the filters was determined by liquid scintillation counting. Data analysis The inhibition of specific binding of the radioligands by the tested drugs was analyzed to estimate the IC50 value by using the non-linear curve-fitting program Allfit [A. De Lean et al., Am. J. Physiol.

Data set [2] can be described thus: in vivo. To be noted: mouse, mice, mortality 7 days after administration. The protocol:
20-30 g b.w., were obtained from Charles River, Italy. Animals were housed with free access to food and water and maintained on forced light-dark cycle at 22°-24° C. until the day of experiments.
The acute toxicity of synthesized compounds was evaluated in female Albino Swiss mice after intraperitoneal and oral administration. Four logarithmic scaled doses of the compounds were dissolved or suspended in 0.5% Methocel and administered in a volume of 10 ml/kg to groups of 4 mice/dose. Mortality was recorded 7 days after the administration.

The mark [3] stands for this setting: ip, intraperitoneal, read-out: DL50 i.p.

The structures appear in SMILES notation. Where a name gives a salt, the structure may show the parent alone. Read-outs that look alike come from different tables or passages of the source. Where only a bound is given, the exact number is not on record here.

With `COc1cc2nc(N3CCN(Cc4ccccc4)CC3)nc(N)c2cc1OC` [Example 1, 4-Amino-6,7-dimethoxy-2-(4-benzyl-1-piperazinyl)-guinazoline bihydrochloride hemihydrate], in data set [1], the IC50 came out at 32 nM. Further, the LD50 at 168 h in data set [2] (setting [3]) came to 76 mg/kg; in data set [2] (oral, read-out: DL50 p.o.), 301 mg/kg.

With `COc1cc2nc(N3CCN(C(c4ccccc4)c4ccccc4)CC3)nc(N)c2cc1OC` [Example 2, 4-Amino-6,7-dimethoxy-2-(4-diphenylmethyl-1-piperazinyl)-guinazoline bihydrochloride emihydrate], the IC50 in data set [1] turned out to be 40 nM.

As to `COc1cc2nc(N3CCN(C(=O)C(c4ccccc4)c4ccccc4)CC3)nc(N)c2cc1OC` [Example 3, 4-Amino-6,7-dimethoxy-2-[4-(2,2-diphenylacetyl)-1-piperazinyl]-quinazoline hydrochloride . 0.75 H2 O], the IC50 in data set [1] is 5 nM. Further, the LD50 at 168 h in data set [2] (setting [3]) was 112 mg/kg; in data set [2] (oral, read-out: DL50 p.o.) it was 868 mg/kg.

Regarding `COc1cc2nc(N3CCN(C(=O)CC(c4ccccc4)c4ccccc4)CC3)nc(N)c2cc1OC` [Example 4, 4-Amino-6,7-dimethoxy-2-[4-(3,3-diphenylpropionyl)-1-piperazinyl]-guinazoline hydrochloride], the IC50 in data set [1] stood at 3 nM. For the same molecule, the LD50 at 168 h in data set [2] (setting [3]) was 97 mg/kg; in data set [2] (oral, read-out: DL50 p.o.) it was above 3000 mg/kg.

`COc1cc2nc(N3CCN(C(=O)CCNC(=O)OCc4ccccc4)CC3)nc(N)c2cc1OC` [Example 5, 4-Amino-6,7-dimethoxy-2-{4-[(3-benzyloxycarbonylamino)propionyl]-1-piperazinyl}-quinazoline hydrochloride emihydrate]: the IC50 in data set [1] is 283 nM. Also, the LD50 at 168 h was 300 mg/kg in data set [2] (setting [3]) and above 3000 mg/kg in data set [2] (oral, read-out: DL50 p.o.).

Turning to `COc1cc2nc(N3CCN(C(=O)CCCNC(=O)OCc4ccccc4)CC3)nc(N)c2cc1OC` [Example 6, 4-Amino-6,7-dimethoxy-2-{4-[(4-benzyloxycarbonylamino)butirryl]-1-piperazinyl}-quinazoline hydrochloride . 1.5 H2 O], in data set [1], the IC50 amounted to 29 nM. For the same molecule, the LD50 at 168 h in data set [2] (setting [3]) is above 1000 mg/kg; in data set [2] (oral, read-out: DL50 p.o.), above 3000 mg/kg.

Take `COc1cc2nc(N3CCN(C(=O)CCN)CC3)nc(N)c2cc1OC` [Example 7, 4-Amino-6,7-dimethoxy-2-[4-(3-aminopropionyl)-1-piperazinyl]-guinazoline dihydrobromide . 1.75 H2 O]: the concentration for half-maximal inhibition (IC50) in data set [1] was determined as 48 nM. Also, the LD50 at 168 h in data set [2] (setting [3]) was 187 mg/kg; in data set [2] (oral, read-out: DL50 p.o.) it was above 3000 mg/kg.

`COc1cc2nc(N3CCN(C(=O)CCCN)CC3)nc(N)c2cc1OC` [Example 8, 4-Amino-6,7-dimethoxy-2-[4-(4-aminobutirryl)-1-piperazinyl]-guinazoline dihydrobromide . 0.25 H2 O]: the half-inhibitory concentration (IC50) in data set [1] was 47 nM. The LD50 at 168 h in data set [2] (setting [3]) was 219 mg/kg; in data set [2] (oral, read-out: DL50 p.o.), above 3000 mg/kg.

Consider `COc1cc2nc(N3CCN(C(=O)CCCNS(C)(=O)=O)CC3)nc(N)c2cc1OC` [Example 9, 4-Amino-6,7-dimethoxy-2-{4-[(4-methylsulfonylamino)butirry]-1-piperazinyl}-quinazoline hydrochloride], for which the 50% inhibitory concentration (IC50) in data set [1] amounted to 86 nM. In data set [2] (setting [3]), the LD50 at 168 h is above 500 mg/kg.

On to `COc1cc2nc(N3CCN(C(=O)NCCN(C)C)CC3)nc(N)c2cc1OC.Cl.Cl.O.O.O.O` [Example 10, 4-Amino-6,7-dimethoxy-2-{4-[(2-dimethylaminoethyl)amino-carbonyl]-1-piperazinyl}-quinazoline dihydrochloride tetrahydrate], for which the half-inhibitory concentration (IC50) in data set [1] came to 55 nM. Moreover, the LD50 at 168 h in data set [2] (setting [3]) is 23 mg/kg; in data set [2] (oral, read-out: DL50 p.o.), 1350 mg/kg.

Take `COc1cc2nc(N3CCN(C(=O)CNC(=O)OCc4ccccc4)CC3)nc(N)c2cc1OC.Cl` [Example 11, 4-Amino-6,7-dimethoxy-2-{4-[2-(benzyloxycarbonylamino)-acetyl]-1-piperazinyl}-quinazoline hydrochloride]: the half-maximal inhibitory concentration (IC50) in data set [1] was determined as 61 nM. For the same molecule, the LD50 at 168 h in data set [2] (setting [3]) is above 1000 mg/kg; in data set [2] (oral, read-out: DL50 p.o.), above 3000 mg/kg.

Turning to `COc1cc2nc(N3CCN(C(=O)CNC(=O)CNC(=O)OCc4ccccc4)CC3)nc(N)c2cc1OC` [Example 12, 4-Amino-6,7-dimethoxy-2-{4-[2-[2-(benzyloxycarbonylamino)-acetylamino]acetyl]-1-piperazinyl}-quinazoline hydrochloride hemihydrate], the 50% inhibitory concentration (IC50) in data set [1] was 29 nM. Also, the LD50 at 168 h is 1130 mg/kg in data set [2] (setting [3]) and above 2000 mg/kg in data set [2] (oral, read-out: DL50 p.o.).

Take `COc1cc2nc(N3CCN(C(=O)CC(O)c4ccccc4)CC3)nc(N)c2cc1OC` (stereo not drawn) [Example 14, 4-Amino-6,7-dimethoxy-2-[4-(3-hydroxy-3-phenylpropionyl)-1-piperazinyl]-quinazoline]: the half-inhibitory concentration (IC50) in data set [1] was 19 nM. Moreover, the LD50 at 168 h in data set [2] (setting [3]) is above 1000 mg/kg; in data set [2] (oral, read-out: DL50 p.o.) it was above 3000 mg/kg.

Consider `COc1cc2nc(N3CCN(C(=O)CCC(=O)c4ccccc4)CC3)nc(N)c2cc1OC.Cl.O` [Example 15, 4-Amino-6,7-dimethoxy-2-{4-[(3-benzoyl)propionyl]-1-piperazinyl}-quinazoline hydrochloride hydrate], for which, in data set [1], the IC50 was 15 nM. In addition, the LD50 at 168 h in data set [2] (setting [3]) was above 1000 mg/kg; in data set [2] (oral, read-out: DL50 p.o.) it was above 3000 mg/kg.

Turning to `COc1cc2nc(N3CCN(C(=O)CCC(O)c4ccccc4)CC3)nc(N)c2cc1OC` (stereo not drawn) [Example 16, 4-Amino-6,7-dimethoxy-2-[4-(4-phenyl-4-hydroxybutirryl)-1-piperazinyl]-quinazoline maleate (1:1)], the IC50 in data set [1] is 17 nM. In addition, the LD50 at 168 h was 253 mg/kg in data set [2] (setting [3]) and above 3000 mg/kg in data set [2] (oral, read-out: DL50 p.o.).

As to `COc1cc2nc(N3CCN(C(=O)CC(N)=O)CC3)nc(N)c2cc1OC` [Example 17, 4-Amino-6,7-dimethoxy-2-[4-(3-oxo-3-aminopropionyl)-1-piperazinyl]-quinazoline hydrochloride hydrate], the IC50 in data set [1] stood at 105 nM.

In the case of `CCOC(=O)CC(=O)N1CCN(c2nc(N)c3cc(OC)c(OC)cc3n2)CC1.Cl` [Example 18, 4-Amino-6,7-dimethoxy-2-[4-(2-ethoxycarbonylacetyl)-1-piperazinyl]-quinazoline hydrochloride], the 50% inhibitory concentration (IC50) in data set [1] was 54 nM. The LD50 at 168 h is above 1000 mg/kg in data set [2] (setting [3]) and above 3000 mg/kg in data set [2] (oral, read-out: DL50 p.o.).

Consider `CCCCNC(=O)CC(=O)N1CCN(c2nc(N)c3cc(OC)c(OC)cc3n2)CC1.Cl` [Example 19, 4-Amino-6,7-dimethoxy-2-[4-(3-n-butylamino-3-oxopropionyl)-1-piperazinyl]-quinazoline hydrochloride], for which the IC50 in data set [1] turned out to be 96 nM. Moreover, the LD50 at 168 h is 459 mg/kg in data set [2] (setting [3]) and above 2000 mg/kg in data set [2] (oral, read-out: DL50 p.o.).

As to `COc1cc2nc(N3CCN(C(=O)CC(=O)Nc4ccccc4)CC3)nc(N)c2cc1OC` [Example 20, 4-Amino-6,7-dimethoxy-2-[4-(phenylaminocarbonylacetyl)-1-piperazinyl]-quinazoline hydrochloride hemihydrate], the IC50 in data set [1] was found to be 67 nM.

With `COc1cc2nc(N3CCN(C(=O)C(C)(C)Oc4ccccc4)CC3)nc(N)c2cc1OC` [Example 21, 4-Amino-6,7-dimethoxy-2-[4-(2-phenoxy-2-methylpropionyl)-1-piperazinyl]-quinazoline hydrochloride . 1.5 H2 O], in data set [1], the half-maximal inhibitory concentration (IC50) was 99 nM. Besides, the LD50 at 168 h in data set [2] (setting [3]) was 206 mg/kg; in data set [2] (oral, read-out: DL50 p.o.) it was above 1700 mg/kg.

`COc1cc2nc(N3CCN(C(=O)C(C)(C)Oc4ccccc4OC)CC3)nc(N)c2cc1OC.Cl` [Example 22, 4-Amino-6,7-dimethoxy-2-{4-[2-(2-methoxyphenoxy)-2-methylpropionyl]-1-piperazinyl}-quinazoline hydrochloride]: the IC50 in data set [1] turned out to be 49 nM. Also, the LD50 at 168 h in data set [2] (setting [3]) was 435 mg/kg; in data set [2] (oral, read-out: DL50 p.o.), above 3000 mg/kg.

Turning to `COc1cc2nc(N3CCN(C(=O)COc4ccccc4OC)CC3)nc(N)c2cc1OC.Cl` [Example 23, 4-Amino-6,7-dimethoxy-2-[4-(2-methoxyphenoxyacetyl)-1-piperazinyl]-quinazoline hydrochloride], the LD50 at 168 h in data set [2] (setting [3]) was 337 mg/kg; in data set [2] (oral, read-out: DL50 p.o.), above 2000 mg/kg.

Turning to `COc1cc2nc(N3CCN(C(=O)COc4cc(C)ccc4C(C)C)CC3)nc(N)c2cc1OC` [Example 25, 4-Amino-6,7-dimethoxy-2-{4-[(2-isopropyl-5-methylphenoxy)acetyl]-1-piperazinyl}-quinazoline hydrochloride . 0.25 H2 O], the IC50 in data set [1] came to 157 nM. In addition, the LD50 at 168 h in data set [2] (setting [3]) is 346 mg/kg; in data set [2] (oral, read-out: DL50 p.o.), above 3000 mg/kg.

As for `COc1cc2nc(N3CCN(C(=O)COc4c(OC)cccc4OC)CC3)nc(N)c2cc1OC` [Example 27, 4-Amino-6,7-dimethoxy-2-[4-(2,6-dimethoxyphenoxy)acetyl-1-piperazinyl]-quinazoline hydrochloride . 0.25 H2 O], in data set [1], the IC50 amounted to 6 nM.

For the molecule `COc1cc2nc(N3CCc4c(ccc5ccccc45)C3)nc(N)c2cc1OC` [Example 30, 4-Amino-6,7-dimethoxy-2-(1,2,3,4-tetrahydrobenzo[f]isoquinolin-2-yl)-quinazoline . 0.25 ethanole], the concentration for half-maximal inhibition (IC50) in data set [1] came out at 5 nM.
